# How the values were obtained:
# [1] = test system: corn ('Kandy Korn', extra sweet) seedlings; assay: Foliar MDHJ spray, leaf senescence in corn seedlings (Example 4); type: in vivo; conditions: 6 days after treatment
# Procedure: Seeds of corn (‘Kandy Korn’, extra sweet) were planted in 2-inch pots. Seedlings were germinated under 16-hour day/8-hour night greenhouse conditions. Plants were placed outdoors and received 5-6 hours of natural, direct light. Eighteen days after planting, seedlings received one of two treatments. • Treatment 1 (n=11): Foliar spray with water—control • Treatment 2 (n=12): Foliar spray of 1 mM MDHJ in water. Plant leaves from both treatments were sprayed until the point of drip and allowed to air dry before being randomly combined into the same growing tray (to provide plants from both treatments with identical growing conditions). […] Plants were observed and visible leaf senescence recorded 6 days after the single treatment. Plants were scored according to presence or absence of senescence on any leaf of the plant. […] Of the plants with senescing leaves, only one leaf per plant had senescence (10%) in the Treatment 2 group.
# plants = conditions: U.S. Patent Application Publication No. 2009/0082453; cited from earlier work
# Yellow Dwarf roses = assay: Foliar MDHJ spray, leaf senescence in potted Yellow Dwarf roses (Example 2); type: in vivo; conditions: one foliar spray
# Procedure: Potted Yellow Dwarf roses were grouped into one of four groups, and each of the groups received one treatment. One group was an untreated control (UTC), while the other three groups were treated with aqueous solutions of MDHJ that differed only in the concentration of MDHJ. There were three plants in each group. Before the trial began, naturally senescing leaves were visible on all plants; these were removed at the time that the trial began. The rose leaves received one foliar spray treatment by applying spray until the point of drip. […] Senescence was indicated by chlorosis and necrosis affecting greater than 50% of an individual leaf. After each evaluation, senescing leaves were removed. [table]
# [2] = test system: spinach seedlings, cultivar 'Merlo Nero'; assay: MDHJ spray, leaf senescence in greenhouse-grown spinach seedlings (Example 3); type: in vivo
# Procedure: Greenhouse-grown spinach seedlings, cultivar ‘Merlo Nero,’ were divided into two groups, with eight plants per group. One group was left untreated, while the other group was treated with 0.5 mM MDHJ in 0.1% ethanol by spraying leaves until the point of drip. Treatments occurred on days 1, 4 and 8 of the experiment. On day 6, senescence was noted on some leaves, defined by chlorosis and/or necrosis. Senescence began at the leaf tip and spread towards the petiole. […] All leaves from each plant were then harvested and combined for each treatment. The total number of senescing leaves were counted and taken as a percentage of the total number of leaves per treatment. Senescence was indicated by chlorosis and necrosis affecting greater than 50% of an individual leaf.
# miniature PARADE® roses = assay: Foliar MDHJ spray, leaf senescence in potted miniature roses (Example 1); type: in vivo
# Procedure: Potted miniature […]® roses were evaluated for the effect on leaf senescence of foliar spray treatment with an MDHJ formulation. […] Another group of four plants was sprayed with a formulation comprising 1.5 mM MDHJ, 0.5% TRITON® X-100, and 0.125% canola oil. The treated plants were sprayed on six occasions, on days 1, 3, 12, 29, 31, and 58, by spraying foliage to the point of drip. […] Senescence was indicated by chlorosis and necrosis affecting greater than 50% of an individual leaflet.
# Solubility in water = type: physicochemical
# [3] = test system: corn, rice, wheat, oat, barley, arabidopsis, sunflower, and zucchini; conditions: application to intact as well as excised plant leaves; literature; cited from earlier work
smiles,measurement,setting,value
"CCCCCC1C(=O)CCC1CC(=O)OC (stereo not shown) [MDHJ, methyl dihydrojasmonate]","of the plants with senescing leaves, only one leaf per plant had senescence (percentage in brackets)",[1]; Treatment 2: 1 mM MDHJ in water,10%
same,severity of senescence: mean % yellow per senescing leaf (leaf area),"[1]; Treatment 2: 1 mM MDHJ in water, water control 43%",15%
same,% of plants with two senescent leaves,"[1]; Treatment 2: single foliar spray of 1 mM MDHJ in water (n = 12), water control 27%",0%
same,% of plants with one senescent leaf,"[1]; Treatment 2: single foliar spray of 1 mM MDHJ in water (n = 12), water control 36%",25%
same,% of plants with senescing leaves,"[1]; Treatment 2: single foliar spray of 1 mM MDHJ in water (n = 12), water control 64%",27%
same,effect on biotic attack and disease in plants (in words),plants,effective in reducing biotic attack and disease in plants
same,rate of naturally senescing leaves compared to the untreated control group (in words),"Yellow Dwarf roses; MDHJ treatment in general (1.5, 3.0, 6.0 mM)",reduced the rate of naturally senescing leaves
same,Mean No. Leaves (exhibiting senescence),"Yellow Dwarf roses; Treatment Group 2: 1.5 mM MDHJ + 0.125% TRITON X-100 + 0.5% Canola Oil, Day 3",27
same,Mean No. Leaves (exhibiting senescence),"Yellow Dwarf roses; Treatment Group 2: 1.5 mM MDHJ + 0.125% TRITON X-100 + 0.5% Canola Oil, Day 7",1
same,Mean No. Leaves (exhibiting senescence),"Yellow Dwarf roses; Treatment Group 2: 1.5 mM MDHJ + 0.125% TRITON X-100 + 0.5% Canola Oil, Day 10",5
same,Mean No. Leaves (exhibiting senescence),"Yellow Dwarf roses; Treatment Group 2: 1.5 mM MDHJ + 0.125% TRITON X-100 + 0.5% Canola Oil, Day 14",13
same,Mean No. Leaves (exhibiting senescence),"Yellow Dwarf roses; Treatment Group 2: 1.5 mM MDHJ + 0.125% TRITON X-100 + 0.5% Canola Oil, Day 31",27
same,Mean No. Leaves (exhibiting senescence),"Yellow Dwarf roses; Treatment Group 3: 3.0 mM MDHJ + 0.125% TRITON X-100 + 0.5% Canola Oil, Day 3",25
same,Mean No. Leaves (exhibiting senescence),"Yellow Dwarf roses; Treatment Group 3: 3.0 mM MDHJ + 0.125% TRITON X-100 + 0.5% Canola Oil, Day 7",1
same,Mean No. Leaves (exhibiting senescence),"Yellow Dwarf roses; Treatment Group 3: 3.0 mM MDHJ + 0.125% TRITON X-100 + 0.5% Canola Oil, Day 10",4
same,Mean No. Leaves (exhibiting senescence),"Yellow Dwarf roses; Treatment Group 3: 3.0 mM MDHJ + 0.125% TRITON X-100 + 0.5% Canola Oil, Day 14",12
same,Mean No. Leaves (exhibiting senescence),"Yellow Dwarf roses; Treatment Group 3: 3.0 mM MDHJ + 0.125% TRITON X-100 + 0.5% Canola Oil, Day 31",25
same,Mean No. Leaves (exhibiting senescence),"Yellow Dwarf roses; Treatment Group 4: 6.0 mM MDHJ + 0.125% TRITON X-100 + 0.5% Canola Oil, Day 3",23
same,Mean No. Leaves (exhibiting senescence),"Yellow Dwarf roses; Treatment Group 4: 6.0 mM MDHJ + 0.125% TRITON X-100 + 0.5% Canola Oil, Day 7",2
same,Mean No. Leaves (exhibiting senescence),"Yellow Dwarf roses; Treatment Group 4: 6.0 mM MDHJ + 0.125% TRITON X-100 + 0.5% Canola Oil, Day 10",5
same,Mean No. Leaves (exhibiting senescence),"Yellow Dwarf roses; Treatment Group 4: 6.0 mM MDHJ + 0.125% TRITON X-100 + 0.5% Canola Oil, Day 14",12
same,Mean No. Leaves (exhibiting senescence),"Yellow Dwarf roses; Treatment Group 4: 6.0 mM MDHJ + 0.125% TRITON X-100 + 0.5% Canola Oil, Day 31",23
same,% of Leaves Exhibiting Senescence,"[2]; 0.5 mM MDHJ in 0.1% ethanol sprayed on days 1, 4 and 8, counted day 8, untreated 34.6%",8.6%
same,% of Plants Exhibiting Senescence,"[2]; 0.5 mM MDHJ in 0.1% ethanol, day 8, eight plants, untreated 87.5%",37.5%
same,Number of Plants Exhibiting Chlorosis or Necrosis,"[2]; 0.5 mM MDHJ in 0.1% ethanol, day 8, of 8 plants, untreated 7",3
same,Number of Senescent Leaves,"[2]; 0.5 mM MDHJ in 0.1% ethanol, day 8, of 93 leaves in total, untreated 36 of 104",8
same,senescing leaves (in words),"miniature PARADE® roses; 1.5 mM MDHJ foliar spray, sixty-five days after treatment, untreated up to 9.4% of leaflets",no senescing leaves
same,% Leaflets exhibiting senescence,"miniature PARADE® roses; individual plant, foliar spray 1.5 mM MDHJ, 0.5% TRITON X-100, 0.125% canola oil on days 1, 3, 12, 29, 31, 58, analyzed 65 days after first treatment, senescence = chlorosis and necrosis >50% of leaflet",0.0%
same,solubility in water (in words),Solubility in water,relatively low solubility in water
"CC/C=C\CC1C(=O)CCC1CC(=O)O (stereo not shown) [jasmonic acid, 2-(3-oxo-2-(pent-2-enyl)cyclopentyl)acetic acid]",effect on leaf senescence (in words),[3],promotes or accelerates leaf senescence
CC/C=C\CC1C(=O)CCC1CC(=O)OC (stereo not shown) [methyl jasmonate],effect on leaf senescence (in words),[3],promotes or accelerates leaf senescence

# — patent US9301524B2, “Methods for reducing leaf senescence using methyl dihydrojasmonate” (New Biology, Inc., priority 2008, dated 2016)
